# US12324839B2, “Testosterone-inducing peptide compounds and associated combinations” (THE ROYAL INSTITUTION FOR THE ADVANCEMENT OF …, priority 2018, dated 2025)
# Square brackets hold non-standard residues; d marks the D form. Peptide text beside a SMILES is read from it.
# Tests used:
# [1] = test system: plasma testosterone level in Brown-Norway rats; experiment: Oral administration (gavage) of peptides, plasma testosterone; format: in vivo; conditions: for average testosterone levels: gavage ~10 μg/kg; for average testosterone levels across doses: gavage ~10, 220, or 420 μg/kg, after two hrs, rats aged 82-131 days; for testosterone levels: oral gavage ~580 μg/kg
# Experimental: (§1) Peptides. Peptides were obtained from CanPeptide (Montreal, Quebec) with >95% purity. All peptides were dissolved in molecular grade, sterile double distilled water to obtain a 1 mM stock solution and stored at −20° C. Peptides used for oral screenings were prepared from 1 mM peptide stock and diluted in sterile tap water in a total volume of 1 mL. Peptides used for pharmacokinetic experiments were diluted at 10 mg/ml using sterile tap water. Some of the peptides were chemically modified after synthesis. The following table summarizes the peptides that have been tested:
# (§2) Animal handling, blood collections, surgical procedures, and oral administration of peptides. Brown-Norway rats aged 22-28, 36-42, or 50-56 days-old were purchased from Charles River Laboratories (Senneville, Quebec) and aged until needed. Rats were kept on a 12 L/12 D day cycle with lights on at 7 AM and access to food and water ad libitum.
# (§3) For all experiments, plasma samples were obtained via percutaneous jugular puncture and collected in EDTA KE/1.3 tubes (Sarstedt, Numbrecht, Germany, Cat #5072511). Blood collection time points are indicated in each figure legend. Samples were centrifuged at 1 300 RCF for 10 min, and the plasma was stored in 2 mL Wheaton glass vials (Fisher Scientific, Hampton, NH, Cat #03 337 21A) and kept at −20° C. until needed.
# (§4) For all oral experiments, administration via gavage began between 8:30-8:50 am with a 3-minute delay between each rat. Animals used for pharmacokinetic studies were fasted for 4 hrs before starting gavage at 1 pm with a 3-minute delay between each rat.
# (§5) Plasma steroid measurements. Testosterone levels were measured using Cayman (Ann Arbor, MI) EIA kit Cat #582701, and corticosterone levels were measured using Cayman EIA kit Cat #501320. All samples were measured in duplicate according to the manufacturer's instructions. Samples were diluted until the average control levels fitted the middle of the standard curve. The number of animals used for each experiment is noted in the corresponding figure legend.
# [2] = Peptide stability in plasma; format: in vitro ADME, Brown-Norway rats; conditions: for half-life in plasma (rank order): 4 μM peptide (KVSQ 12.5 μM) in 100 μL rat plasma, 37° C., 1-120 minutes; for stability / degradation in plasma: in vitro rat plasma incubation
# Experimental: Peptide stability in plasma, oral pharmacokinetics, and quantification. For peptide stability experiments, plasma from Brown-Norway rats age 90-140 days was collected and stored at −20° C. until further use. The plasma was thawed, spun at 12 000 RPM for 10 min, and kept at 4° C. 4 μM of the various peptides were incubated with 100 μL of plasma that was warmed at 37° C. for 10 min before use. After 1, 15, 30, 60, 90 or 120 minutes, the plasma/peptide samples were crashed with 300 μL of 100% methanol, spun at 14 000 RPM for 10 min, and the supernatant collected. The methanol in the supernatant was evaporated and the samples were re-extracted. The final pellet was solubilized in 5 μL methanol followed by the addition of 100 μL of sterile double distilled water. The extracted samples were transferred to plastic tubes and placed in the autoloader of the mass spectrometer.
# (§6) The analytical instrumentation consisted of a Thermo-Scientific ISQ Quantiva Triple Quadrupole Mass Spectrometer (QQQ), incorporating a heated electrospray ionization (HESI) source, and a Thermo-Scientific UltiMate™ 3000 UHPLC system (including, UltiMate™ 3000 RS autosampler). Analytical conditions were developed using a reference standard in a solution containing 5 μM of the corresponding peptide. The chromatography was resolved by isocratic elution of a binary solvent system incorporating (A) 0.1% Formic Acid (aq) and (B) ACN+0.1% FA and using an Agilent Eclipse Plus™ C18 analytical column (100 mm×2.1 mm ID, 1.8 μm particle). A 5 μL injection volume and solvent flow rate of 150 μL/min were used. The MS/MS acquisition time was 7 min and total run time was 8.3 min/injection. The triple Quadrupole MS/MS instrumentation conditions were as follows: the HESI source voltage was 3200 V, the sheath gas […], auxiliary gas 20 L/min, sweep gas 2.0 L/min, the ion transfer temperature was 350° C., the vaporizer temperature was 350° C., the CID gas was 1.5 (mTorr) and the dwell time was 100 msec. The Q1 Resolution (FWHM) was 0.4 (unitless) and the Q3 resolution (FWHM) was 0.7 (unitless). The instrument ran in a selected reaction monitoring (SRM), positive ion detection mode at various collision energies (CE) for the following mass transitions: • Ac-RITQdS-NH2: p84 (m/z 645→m/z 295, m/z 396) • RdVTQ: p72 (m/z 503→m/z 211). • Ac-RdITQ-NH2: p87 (m/z 558→m/z 391, m/z 267) • RVTQ: p64 (m/z 503→m/z 211; m/z 503→m/z 357 and m/z 503→m/z 256) • KVSQ: p95 (m/z 461→m/z 129) and (m/z 461→m/z 234)
# [3] = Oral pharmacokinetics after single oral dose; format: in vivo, Brown-Norway rats; conditions: single oral dose of 10 mg peptide, gavage
# Experimental: as §4
# For oral pharmacokinetic experiments, jugular blood samples were collected following a single oral dose of 10 mg peptide in 1 ml of vehicle after 5, 15, 30, 45, 60, 90, and 120 minutes. Protein inhibitor cocktail (ROCHE, cOmplete protein inhibitors, Cat #11697498001), which was added into the EDTA collection tubes, was used for KVSQ and RVTQ peptides. Plasma was immediately extracted, and 100 μL of plasma were crashed with 300 μL of 100% methanol, spun at 14 000 RPM for 10 min, and the supernatant harvested. Re-extraction of the precipitant and solubilization of the pellet were as described above.
# as §6, with “The instrument ran in a selected reaction monitoring (SRM), positive ion detection mode at various collision energies (CE) for the following mass transitions: • Ac-RITQdS-NH2: p84 (m/z 645→m/z 295, m/z 396) • RdVTQ: p72 (m/z 503→m/z 211). • Ac-RdITQ-NH2: p87 (m/z 558→m/z 391, m/z 267) • RVTQ: p64 (m/z 503→m/z 211; m/z 503→m/z 357 and m/z 503→m/z 256) • KVSQ: p95 (m/z 461→m/z 129) and (m/z 461→m/z 234)” left out
# [4] = test system: plasma testosterone level in Brown-Norway rats; experiment: Subcutaneous osmotic pump infusion of tetrapeptides, plasma testosterone (Example I); format: in vivo
# Experimental: Osmotic pumps. Model 2006 osmotic pumps, infusing 0.15 μL/hr, were purchased from Alzet (Cupertino, CA). The peptide concentration loaded into the pumps was adjusted to deliver the doses indicated in each figure. The pump infusion rates varied by production lot and were adjusted accordingly. Pumps were loaded 24 hrs prior to surgical implantation under sterile conditions and were kept at 37° C. in PBS.
# as §2, §3
# Brown-Norway rats aged ˜29 day-old were implanted with osmotic infusion pumps in the interscapular region under general anesthesia with isoflurane following antisepsis using iodine. The surgical wound was closed with two to three staples that were removed a week after the surgery. Subcutaneous carprofen (Zoetis, Parsippany, NJ) was given before the surgical procedure and in the following two days for pain management.
# as §5
# [5] = test system: plasma corticosterone level in Brown-Norway rats; experiment: Oral administration (gavage) of peptides, plasma corticosterone; format: in vivo; conditions: gavage with increasing concentrations, 2 hrs
# Experimental: as §1, §2
# For all experiments, plasma samples were obtained via percutaneous jugular puncture and collected in EDTA KE/1.3 tubes (Sarstedt, Numbrecht, Germany, Cat #5072511). […]
# Plasma steroid measurements. Testosterone levels were measured using Cayman (Ann Arbor, MI) EIA kit Cat #582701, and corticosterone levels were measured using Cayman EIA kit Cat #501320. All samples were measured in duplicate according to the manufacturer's instructions. […]
# [6] = test system: plasma testosterone level in Brown-Norway rats; experiment: Subcutaneous osmotic pump infusion of TV159-172 derivatives and N163-166, plasma testosterone (Example II); format: in vivo; conditions: 309 ng/kg/day, 7 days after implantation
# Experimental: (§7) Animal handling, serum, plasma, and intratesticular sample collection. Brown-Norway rats aged 36-42 days old were purchased from Charles River and aged until ˜60 days old. Rats were kept on a 12 L/12 D day cycle with lights on at 7 AM and had access to food and water ad libitum.
# (§8) Jugular samples were collected via percutaneous puncture and samples were collected in EDTA coated tubes (plasma) and centrifuged at 1,300 RCF for 10 min and stored in 2 mL Wheaton glass vials (Fisher Scientific, Hampton, NH, Cat #03 337 21A) and kept at −20° C. Animals were handled according to protocols approved by the McGill University Animal Care and Use Committee, which included standard operating procedures for the amount and frequency of blood sample collections.
# (§9) Hormone measurements. Testosterone levels were measured using Cayman (Ann Arbor, MI) EIA kit Cat #582701 and corticosterone levels were measured using Cayman EIA kit Cat #501320. Plasma fluid samples were diluted until controls fitted the middle of the standard curve used.
# (§10) Osmotic pumps. Alzet 2006 osmotic pumps were purchased from Alzet (Cupertino, CA) with an infusion rate of 0.15 μL/hr. The peptide concentration loaded into the pumps accounted for weight gain at the time of collection and was adjusted to deliver the doses indicated in each figure. The pump infusion rates varied by production lot and were adjusted accordingly. […]
# [7] = test system: plasma corticosterone level in Brown-Norway rats; experiment: Subcutaneous osmotic pump infusion of TV159-172 derivatives and N163-166, plasma corticosterone (Example II); format: in vivo; conditions: 40 days after implantation
# Experimental: as §7, §8, §9, §10
# [8] = samples at age 54 days (first round), ~370 ng/kg/day
compound,measurement,setting,value
Ac-KdITQ-NH2,average testosterone levels,"[1]; third screening, 2 hrs","increased, although not significantly"
CC[C@H](C)[C@H](NC(=O)[C@H](CCCNC(=N)N)NC(C)=O)C(=O)N[C@H](C(=O)N[C@@H](CCC(N)=O)C(=O)N[C@H](CO)C(N)=O)[C@@H](C)O [Ac-RITQdS-NH2] (Ac-RITQ[dS]-NH2),average testosterone levels across doses,[1],increased average testosterone levels
same,average testosterone levels,"[1]; third screening, 2 hrs","increased, although not significantly"
same,half-life in plasma (rank order),[2],Ac-RITQdS-NH2>RdVTQ>Ac-RdITQ-NH2>RITQ>RVTQ>KVSQ
same,stability / degradation in plasma,[2],most stable peptide
same,Tmax,"[3]; Brown-Norway, rat, plasma, read-out: time to peak concentration in blood (converted)",~15 min
KITQ,circulating testosterone levels,[4]; [8],significant increase
RVTQdS-NH2,testosterone levels,[1]; 2 hr post-treatment,best significant increase in testosterone levels
same,testosterone levels,[1]; 3 hrs sampling time,significantly increased testosterone levels
CC(C)[C@@H](NC(=O)[C@@H](N)CCCNC(=N)N)C(=O)N[C@H](C(=O)N[C@@H](CCC(N)=O)C(=O)O)[C@@H](C)O [RdVTQ] (H-R[dV]TQ-OH),"testosterone levels, dose-response","[1]; gavage 10 μg/kg, 2 hrs",trend to increase
same,"testosterone levels, dose-response","[1]; gavage 800 μg/kg, 2 hrs",significant increases
same,"testosterone levels, dose-response","[1]; gavage ~400 μg/kg, 2 hrs",significant increases
same,average testosterone levels across doses,[1],increased average testosterone levels
same,"average testosterone levels, dose-response","[1]; gavage, all doses tested, 2 hrs",increased the average testosterone levels at all doses tested
same,average testosterone levels,"[1]; third screening, 2 hrs","increased, although not significantly"
same,"corticosterone levels, dose-response",[5],no corresponding significant changes
same,half-life in plasma (rank order),[2],Ac-RITQdS-NH2>RdVTQ>Ac-RdITQ-NH2>RITQ>RVTQ>KVSQ
CC[C@@H](C)[C@@H](NC(=O)[C@H](CCCNC(=N)N)NC(C)=O)C(=O)N[C@H](C(=O)N[C@@H](CCC(N)=O)C(N)=O)[C@@H](C)O [Ac-RdITQ-NH2] (Ac-R[dI]TQ-NH2),average testosterone levels across doses,[1],increased average testosterone levels
same,average testosterone levels,"[1]; third screening, 2 hrs","increased, although not significantly"
same,half-life in plasma (rank order),[2],Ac-RITQdS-NH2>RdVTQ>Ac-RdITQ-NH2>RITQ>RVTQ>KVSQ
CC[C@H](C)[C@H](NC(=O)[C@@H](N)CCCNC(=N)N)C(=O)N[C@H](C(=O)N[C@@H](CCC(N)=O)C(=O)O)[C@@H](C)O [RITQ] (H-RITQ-OH),circulating testosterone levels,[4]; [8],non-significant increase
same,circulating testosterone levels,"[4]; samples at age 65 days (second round), ~330 ng/kg/day",significant increase
same,"testosterone levels, dose-response","[1]; gavage 10 μg/kg, 2 hrs",significant increase
same,"testosterone levels, dose-response","[1]; gavage ~220 μg/kg, 2 hrs",non-significant decrease
same,"testosterone levels, dose-response","[1]; gavage ~520 μg/kg, 2 hrs",significant increase
same,average testosterone levels,"[1]; third screening, 2 hrs","increased, although not significantly"
same,steroid (testosterone) levels,"[1]; third screening, gavage ~220 μg/kg, 2 hrs",decrease in steroid levels
same,"corticosterone levels, dose-response",[5],no corresponding significant changes
same,half-life in plasma (rank order),[2],Ac-RITQdS-NH2>RdVTQ>Ac-RdITQ-NH2>RITQ>RVTQ>KVSQ
same,stability / degradation in plasma,[2],rapid time-dependent degradation
CC(C)[C@H](NC(=O)[C@@H](N)CCCCN)C(=O)N[C@@H](CO)C(=O)N[C@@H](CCC(N)=O)C(=O)O [KVSQ] (H-KVSQ-OH),average testosterone levels across doses,[1],increased average testosterone levels
same,average testosterone levels,"[1]; third screening, 2 hrs","increased, although not significantly"
same,half-life in plasma (rank order),[2],Ac-RITQdS-NH2>RdVTQ>Ac-RdITQ-NH2>RITQ>RVTQ>KVSQ
same,stability / degradation in plasma,[2],rapid degradation
same,circulating peptide levels (detection),[3],not detected
CC(C)[C@H](NC(=O)[C@@H](N)CCCNC(=N)N)C(=O)N[C@H](C(=O)N[C@@H](CCC(N)=O)C(=O)O)[C@@H](C)O [RVTQ] (H-RVTQ-OH),increase in plasma testosterone levels,"[4]; 377 ng/kg/d, ~54 day-old rats, vs water",two-fold
same,testosterone levels,[1]; 3 hrs sampling time,did not show an effect
same,half-life in plasma (rank order),[2],Ac-RITQdS-NH2>RdVTQ>Ac-RdITQ-NH2>RITQ>RVTQ>KVSQ
same,stability / degradation in plasma,[2],rapid time-dependent degradation
same,circulating peptide levels (detection),[3],not detected
same,testosterone levels,[6],significantly increased
same,corticosterone levels,[7]; 23 ng/kg/day,decreased
same,corticosterone levels,[7]; treatment inducing testosterone formation (309 ng/kg/day),not affected
